Source: patent publication US20170209492A1, “SUBSET-OPTIMIZED CHIMERIC ANTIGEN RECEPTOR-CONTAINING T-CELLS” (NOVARTIS AG, priority 2014, published 2017)

Columns and labels:
[1] = pharmacokinetic analysis of RAD001 in blood; assay type: in vivo, NSG mice
Procedure: (§1) RAD001 dosing: A concentrated micro-emulsion of 50 mg equal to 1 mg RAD001 was formulated and then resuspended in D5W (dextrose 5% in water) at the time of dosing. Mice were orally dosed daily (via oral gavage) with 200 μl of the desired doses of RAD001.
PK analysis: Mice were dosed daily with RAD001 starting 7 days post tumor implantation. Dosing groups were as follows: 0.3 mg/kg, 1 mg/kg, 3 mg/kg, and 10 mg/kg. Mice were bled on days 0 and 14 following the first and last dose of RAD001, at the following time points for PK analysis: 15 minutes, 30 minutes, 1 hour, 2 hours, 4 hours, 8 hours, 12 hours, and 24 hours.

huCAR19 CAR T cells = assay: in vivo proliferation of humanized CD19 CART cells with RAD001 dosing; parameters: species or system NSG mice
Procedure: (§2) Tumor implantation: NALM6-luc cells were grown and expanded in vitro in RPMI supplemented with 10% heat inactivated fetal bovine serum. The cells were then transferred to a 15 ml conical tube and washed twice with cold sterile PBS. NALM6-luc cells were then counted and resuspended at a concentration of 10×10^6 cells per milliliter of PBS. The cells were placed on ice and immediately (within one hour) implanted in the mice. NALM6-luc cells were injected intravenously via the tail vein in a 100 μl volume, for a total of 1×10^6 cells per mouse.
CAR T cell dosing: Mice were administered 5×10^6 CAR T cells 7 days after tumor implantation. Cells were partially thawed in a 37 degree Celsius water bath and then completely thawed by the addition of 1 ml of cold sterile PBS to the tube containing the cells. The thawed cells were transferred to a 15 ml falcon tube and adjusted to a final volume of 10 mls with PBS. The cells were washed twice at 1000 rpm for 10 minutes each time and then counted on a hemocytometer. T cells were then resuspended at a concentration of 50×10^6 CAR T cells per ml of cold PBS and kept on ice until the mice were dosed. The mice were injected intravenously via the tail vein with 100 μl of the CAR T cells for a dose of 5×10^6 CAR T cells per mouse. Eight mice per group were treated either with 100 μl of PBS alone (PBS), or humanized CD19 CAR T cells.
as §1
Based on these doses, huCAR19 CAR T cells were dosed with and without RAD001 to determine the proliferative ability of these cells. The highest dose used was 3 mg/kg based on the levels of RAD001 in the blood 24 hours after dosing. As the concentration of RAD001 was above 10 nM 24 hours after the final dose of RAD001, several lower doses of RAD001 were used in the in vivo study with CAR T cells. The CAR T cells were dosed IV one day prior to the start of the daily oral RAD001 dosing. Mice were monitored via FACS for T cell expansion.

NALM6-luc tumors = assay: NALM6-luc tumor growth with daily RAD001 dosing; assay type: in vivo, NSG mice; conditions: daily oral dosing of RAD001 alone, 0.3, 1, 3 and 10 mg/kg
Procedure: NALM6-luc cells: The NALM6 human acute lymphoblastic leukemia (ALL) cell line was developed from the peripheral blood of a patient with relapsed ALL. The cells were then tagged with firefly luciferase. These suspension cells grow in RPMI supplemented with 10% heat inactivated fetal bovine serum.
Mice: 6 week old NSG (NOD.Cg-PrkdcscidIl2rgtmlWj1/SzJ) mice were received from the Jackson Laboratory (stock number 005557).
as §2, §1

[2] = tested on: huCART19 cells co-cultured with NALM6 (Nalm-6); assay: CART proliferation in 4 day co-culture assay with RAD001; assay type: cell-based, human; conditions: for proliferation of huCART19 cells: 4 day co-culture
Procedure: To evaluate the functionality of CARTs, the T cells are thawed and counted, and viability is assessed by Cellometer. The number of CAR-positive cells in each culture is normalized using non-transduced T cells (UTD). The impact of RAD001 on CARTs was tested in titrations with RAD001, starting at 50 nM. The target cell line used in all co-culture experiments is NALM6 (Nalm-6), a human pre-B cell acute lymphoblastic leukemia (ALL) cell line expressing CD19 and transduced to express luciferase.
For measuring the proliferation of CARTs, T cells are cultured with target cells at a ratio of 1:1. The assay is run for 4 days, when cells are stained for CD3, CD4, CD8 and CAR expression. The number of T cells is assessed by flow cytometry using counting beads as reference.

## CO[C@H]1C[C@@H]2CC[C@@H](C)[C@@](O)(O2)C(=O)C(=O)N2CCCC[C@H]2C(=O)O[C@H]([C@H](C)C[C@@H]2CC[C@@H](OCCO)[C@H](OC)C2)CC(=O)[C@H](C)/C=C(\C)[C@@H](O)[C@@H](OC)C(=O)[C@H](C)C[C@H](C)/C=C/C=C/C=C/1C [RAD001, (1R,9S,12S,15R,16E,18R,19R,21R,23S,24E,26E,28E,30S,32S,35R)-1,18-dihydroxy-12-{(1R)-2-[(1S ,3R,4R)-4-(2-hydroxyethoxy)-3-methoxycyclohexyl]-1-methylethyl}-19,30-dimethoxy-15,17,21,23,29,35-hexamethyl-11,36-dioxa-4-aza-tricyclo[30.3.1.04,9]hexatriaconta-16,24,26,28-tetraene-2,3,10,14,20-pentaone]
[1]; NSG, mouse, blood, lowest dose tested (0.3 mg/kg), oral, read-out: RAD001 concentration in the blood 24 hours after dosing
  concentration at 24 h: > 10 nM
[1]; after the final dose of RAD001
  concentration of RAD001 24 hours after the final dose: above 10 nM
[1]; daily oral dosing
  stability in the blood of tumor bearing mice: fairly stable
[1]; day 14, lowest dose tested (0.3 mg/kg), oral
  RAD001 concentration in the blood 24 hours after dosing: above 10 nm
huCAR19 CAR T cells; RAD001 0.003 mg/kg daily, above the normal level of huCAR19 proliferation
  CAR T cell proliferation in vivo: enhancement
huCAR19 CAR T cells; lowest doses of RAD001
  proliferation of CD8+ CAR T cells in vivo: enhanced proliferation can be seen at early time points
huCAR19 CAR T cells; lowest doses of RAD001, daily oral, huCAR19 dosed IV
  proliferation of the CAR T cells in vivo: enhanced proliferation
huCAR19 CAR T cells; lowest doses of RAD001, compared with CD8+ CAR T cells
  proliferation of CD4+ CAR T cells in vivo: more evident and prolonged
NALM6-luc tumors
  growth of NALM6-luc tumors: did not have an impact
[2]; 0.0032 nM RAD001
  proliferation of huCART19 cells: higher than observed without the addition of RAD001
[2]; 0.016 nM RAD001
  proliferation of huCART19 cells: higher than observed without the addition of RAD001
[2]; low doses of RAD001, 4 days of co-culture
  proliferation of CAR-expressing, transduced T cells: enhanced
